# Source: patent US11022604B2, “Dock derived compound against laminin receptor (37 LR) and uses thereof” (Purdue Research Foundation, priority 2017, dated 2021)
# Tested on: SH-SY5Y neuroblastoma cells
# Experiment: Cell viability screen (CCK-8), SH-SY5Y cells
# Format: cell-based
# Conditions: Homo sapiens, CCK-8, 96 hours, read-out: IC50, inhibition of cell viability
# Description: FIGS. 2A-2H. Dose response curves. Does response curves for cell lines treated with 6, 10.5, 18.6, 32.4, 57.5 and 100 μM of compound (log) for 96 hours using % cell viability derived from CCK-8 absorbance readings at 450 nm (n=3, mean±SEM). A DMSO equivalent control (n=2±SEM) was also included for each cell line tested: Ea.hy.926 endothelial cells (Endo), LNCaP androgen dependent metastatic prostate cancer cells, TC2-Ras mouse prostate cancer cells, PC-3 androgen independent metastatic prostate cancer cells, and SH-SY5Y neruoblastoma cells. […]
# Cell Viability Screen. […] Cell viability was measured by using the cell counting kit-8 (CCK-8, Dojindo). […] CCK-8 absorbance was measured at 450 nm using a GloMax Multimode Reader (Promega). Readings were performed the day after seeding to normalize for variations in cell seeding and after 96 hours of compound treatment. After each reading, CCK-8 media was removed and replaced with media containing compound as described previously. […] As described previously, an initial baseline CCK-8 reading was performed at 24 hours post seeding to correct for variations in seeding density. First, 450 nm values for each well were subtracted from media only readings to correct for baseline absorbance. Then, the 96 hour readings were normalized to their respective 24 hour readings to control for seeding variation. […]
compound,measurement,value
"O=C(c1cc(F)cc2c1OCOC2)N1CCN(C2c3ccccc3-c3ccccc32)CC1 [Compound C3, [4-(9h-fluoren-9-yl)piperazino](6-fluoro-4h-1,3-benzodioxin-8-yl)methanone]",IC50,18.6 µM
